Laboratory results reported in ChEMBL document CHEMBL3763139, “Design, synthesis and biological evaluation of novel donepezil-coumarin hybrids as multi-target agents for the treatment of Alzheimer's disease” (Bioorg Med Chem, 2016).
Activity calls are given as the source filed them. The rule behind the calls is not given here.

Columns and labels:
[1] = biological target: T1, Amine oxidase [flavin-containing] B (Homo sapiens, UniProt P27338)
T1 sequence (P27338 whole entry): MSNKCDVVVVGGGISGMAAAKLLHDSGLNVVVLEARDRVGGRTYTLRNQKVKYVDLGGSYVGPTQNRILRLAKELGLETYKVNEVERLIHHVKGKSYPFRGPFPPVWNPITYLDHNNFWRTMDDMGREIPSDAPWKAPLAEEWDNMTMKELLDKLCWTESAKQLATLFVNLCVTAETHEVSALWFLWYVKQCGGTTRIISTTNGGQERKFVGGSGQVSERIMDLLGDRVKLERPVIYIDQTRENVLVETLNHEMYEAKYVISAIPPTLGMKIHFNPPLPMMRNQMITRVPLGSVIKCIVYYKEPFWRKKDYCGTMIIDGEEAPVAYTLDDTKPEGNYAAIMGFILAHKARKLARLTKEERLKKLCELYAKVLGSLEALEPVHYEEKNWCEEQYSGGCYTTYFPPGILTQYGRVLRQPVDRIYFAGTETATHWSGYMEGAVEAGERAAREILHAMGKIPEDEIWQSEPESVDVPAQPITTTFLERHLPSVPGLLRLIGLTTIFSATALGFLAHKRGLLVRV
Description: Inhibition of human recombinant MAO-B using p-tyramine substrate after 15 mins by fluorimetric analysis

Homo sapiens = species on record: Homo sapiens; experiment: Selectivity index, ratio of IC50 for human recombinant MAO-A to IC50 for human recombinant MAO-B
[2] = biological target: T2, Amine oxidase [flavin-containing] A (Homo sapiens, UniProt P21397); experiment: Inhibition of human recombinant MAO-A using p-tyramine substrate at 100 uM after 15 mins by fluorimetric analysis; details: 0.25 h
T2 sequence (P21397 whole entry): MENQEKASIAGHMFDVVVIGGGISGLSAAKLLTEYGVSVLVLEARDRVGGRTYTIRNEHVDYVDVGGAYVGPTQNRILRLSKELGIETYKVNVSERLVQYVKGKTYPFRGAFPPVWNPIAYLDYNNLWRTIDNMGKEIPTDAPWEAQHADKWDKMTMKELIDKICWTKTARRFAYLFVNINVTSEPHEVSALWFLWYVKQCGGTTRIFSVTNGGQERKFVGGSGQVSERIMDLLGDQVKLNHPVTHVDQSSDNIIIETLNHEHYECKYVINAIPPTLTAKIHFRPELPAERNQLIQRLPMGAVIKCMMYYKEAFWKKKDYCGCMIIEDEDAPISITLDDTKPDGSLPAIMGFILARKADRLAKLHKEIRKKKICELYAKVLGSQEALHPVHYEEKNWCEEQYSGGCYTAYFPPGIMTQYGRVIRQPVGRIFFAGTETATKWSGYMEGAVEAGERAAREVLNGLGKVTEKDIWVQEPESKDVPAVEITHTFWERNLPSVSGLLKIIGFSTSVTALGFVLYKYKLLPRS

Acetylcholinesterase [3] = biological target: Acetylcholinesterase (Electrophorus electricus, UniProt O42275)
Description: Inhibition of electric eel AChE using acetylthiocholine iodide as substrate preincubated for 6 mins followed by substrate addition measured up to 180 secs by spectrophotometric-based Ellman's method

Cholinesterase [4] = biological target: Cholinesterase (Equus caballus, UniProt P81908)
Description: Inhibition of equine serum BuChE using S-butyrylthiocholine iodide as substrate preincubated for 6 mins followed by substrate addition measured up to 180 secs by spectrophotometric-based Ellman's method

[5] = Cytotoxicity against human SH-SY5Y cells assessed as cell viability at 25 uM after 24 hrs by MTT assay; assay type: cell-based; details: read-out: Activity
[6] = Cytotoxicity against human SH-SY5Y cells assessed as cell viability at 10 uM after 24 hrs by MTT assay; assay type: cell-based; details: read-out: Activity
[7] = biological target: Acetylcholinesterase (Electrophorus electricus) (UniProt O42275); experiment: Mixed type inhibition of electric eel AChE using acetylthiocholine iodide as substrate at 0.44 to 1.74 uM preincubated for 6 mins followed by substrate addition measured up to 180 secs by Lineweaver-Burk reciprocal plot analysis
[8] = biological target: T1, Amine oxidase [flavin-containing] B; experiment: Reversible inhibition of human recombinant MAO-B assessed as enzyme recovery using p-tyramine substrate at 100 times IC50 preincubated for 30 mins followed by 100 fold dilution by fluorimetric analysis relative to control; set-up: scale not given: the % may be the effect or the level left
[9] = biological target: T1, Amine oxidase [flavin-containing] B; experiment: Competitive inhibition of human recombinant MAO-B using p-tyramine substrate at 1.5 to 6 uM after 15 mins by Lineweaver-Burk reciprocal plot analysis; details: 0.25 h
[10] = Cytotoxicity against human SH-SY5Y cells assessed as cell viability at 1 uM after 24 hrs by MTT assay; assay type: cell-based; details: read-out: Activity
[11] = Cytotoxicity against human SH-SY5Y cells assessed as cell viability at 5 uM after 24 hrs by MTT assay; assay type: cell-based; details: read-out: Activity
[12] = Cytotoxicity against human SH-SY5Y cells assessed as cell viability at 50 uM after 24 hrs by MTT assay; assay type: cell-based; details: read-out: Activity
[13] = Hepatotoxicity against human HepG2 cells assessed as cell viability at 6.25 uM after 24 hrs by MTT assay; assay type: toxicity, cell-based; details: read-out: Activity
[14] = Hepatotoxicity against human HepG2 cells assessed as cell viability at 12.5 uM after 24 hrs by MTT assay; assay type: toxicity, cell-based; details: read-out: Activity
[15] = Hepatotoxicity against human HepG2 cells assessed as cell viability at 25 uM after 24 hrs by MTT assay; assay type: toxicity, cell-based; details: read-out: Activity
[16] = Hepatotoxicity against human HepG2 cells assessed as cell viability at 50 uM after 24 hrs by MTT assay; assay type: toxicity, cell-based; details: read-out: Activity
Cholinesterase [17] = biological target: Cholinesterase (Homo sapiens, UniProt P06276)
Description: Inhibition of human serum BuChE using S-butyrylthiocholine iodide as substrate preincubated for 6 mins followed by substrate addition measured up to 180 secs by spectrophotometric-based Ellman's method

Acetylcholinesterase [18] = biological target: Acetylcholinesterase (Homo sapiens, UniProt P22303)
Description: Inhibition of human erythrocyte AChE using acetylthiocholine iodide as substrate preincubated for 6 mins followed by substrate addition measured up to 180 secs by spectrophotometric-based Ellman's method

[19] = biological target: Cholinesterase (Equus caballus) (UniProt P81908); details: 0.44 to 1.74 uM
in vitro = details: PAMPA, pH 7.4
Description: Permeability of the compound at 25 ug/ml at pH 7.4 after 16 hrs by PAMPA

Acetylcholinesterase (Homo sapiens, UniProt P22303), sequence (P22303 whole entry): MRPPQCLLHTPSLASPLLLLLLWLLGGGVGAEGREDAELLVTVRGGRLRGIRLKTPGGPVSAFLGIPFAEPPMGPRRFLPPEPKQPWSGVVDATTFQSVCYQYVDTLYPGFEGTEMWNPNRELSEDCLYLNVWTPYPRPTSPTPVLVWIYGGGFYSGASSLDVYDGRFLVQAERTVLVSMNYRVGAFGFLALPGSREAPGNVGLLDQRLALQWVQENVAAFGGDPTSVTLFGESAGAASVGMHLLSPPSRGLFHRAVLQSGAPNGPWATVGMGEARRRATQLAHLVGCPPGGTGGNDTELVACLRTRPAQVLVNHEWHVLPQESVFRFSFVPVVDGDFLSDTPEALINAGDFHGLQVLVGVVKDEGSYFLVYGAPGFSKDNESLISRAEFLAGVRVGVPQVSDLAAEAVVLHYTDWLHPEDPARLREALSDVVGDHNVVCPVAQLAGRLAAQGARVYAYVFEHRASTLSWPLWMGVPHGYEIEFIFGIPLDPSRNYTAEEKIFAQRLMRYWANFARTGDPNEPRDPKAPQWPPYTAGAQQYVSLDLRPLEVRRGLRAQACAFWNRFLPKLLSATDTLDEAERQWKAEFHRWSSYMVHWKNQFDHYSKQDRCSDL
Acetylcholinesterase (Electrophorus electricus, UniProt O42275), sequence (O42275 whole entry): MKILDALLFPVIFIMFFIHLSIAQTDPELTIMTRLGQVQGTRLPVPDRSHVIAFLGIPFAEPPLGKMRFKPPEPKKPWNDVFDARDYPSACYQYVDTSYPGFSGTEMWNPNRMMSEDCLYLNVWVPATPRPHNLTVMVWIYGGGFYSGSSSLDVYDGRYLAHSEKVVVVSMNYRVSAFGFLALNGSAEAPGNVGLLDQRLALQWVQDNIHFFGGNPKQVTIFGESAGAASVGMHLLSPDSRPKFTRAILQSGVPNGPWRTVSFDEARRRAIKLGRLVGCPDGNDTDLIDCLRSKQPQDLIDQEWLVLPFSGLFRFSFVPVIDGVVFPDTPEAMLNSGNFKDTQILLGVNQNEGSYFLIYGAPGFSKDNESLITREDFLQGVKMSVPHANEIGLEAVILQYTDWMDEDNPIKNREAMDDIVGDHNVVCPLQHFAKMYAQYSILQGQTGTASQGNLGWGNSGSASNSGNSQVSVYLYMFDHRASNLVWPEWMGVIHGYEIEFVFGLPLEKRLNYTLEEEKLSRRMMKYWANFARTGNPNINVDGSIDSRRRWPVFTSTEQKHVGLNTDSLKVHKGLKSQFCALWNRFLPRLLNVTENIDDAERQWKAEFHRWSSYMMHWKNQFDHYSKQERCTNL
Cholinesterase (Equus caballus, UniProt P81908), sequence (P81908 whole entry): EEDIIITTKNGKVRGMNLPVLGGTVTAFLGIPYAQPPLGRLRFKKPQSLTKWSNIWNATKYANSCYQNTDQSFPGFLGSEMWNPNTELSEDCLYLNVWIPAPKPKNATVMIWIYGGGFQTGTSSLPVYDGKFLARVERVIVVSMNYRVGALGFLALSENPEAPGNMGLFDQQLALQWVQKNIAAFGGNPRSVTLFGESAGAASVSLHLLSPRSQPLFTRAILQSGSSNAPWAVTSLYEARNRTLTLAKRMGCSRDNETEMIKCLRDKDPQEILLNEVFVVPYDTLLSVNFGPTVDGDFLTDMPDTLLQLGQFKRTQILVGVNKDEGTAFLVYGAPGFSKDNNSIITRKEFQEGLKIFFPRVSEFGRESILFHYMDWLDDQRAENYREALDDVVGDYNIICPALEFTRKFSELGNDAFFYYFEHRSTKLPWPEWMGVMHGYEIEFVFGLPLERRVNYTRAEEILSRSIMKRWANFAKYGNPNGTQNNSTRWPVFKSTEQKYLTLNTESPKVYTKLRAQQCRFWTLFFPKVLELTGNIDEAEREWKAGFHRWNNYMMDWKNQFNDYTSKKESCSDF
Cholinesterase (Homo sapiens, UniProt P06276), sequence (P06276 whole entry): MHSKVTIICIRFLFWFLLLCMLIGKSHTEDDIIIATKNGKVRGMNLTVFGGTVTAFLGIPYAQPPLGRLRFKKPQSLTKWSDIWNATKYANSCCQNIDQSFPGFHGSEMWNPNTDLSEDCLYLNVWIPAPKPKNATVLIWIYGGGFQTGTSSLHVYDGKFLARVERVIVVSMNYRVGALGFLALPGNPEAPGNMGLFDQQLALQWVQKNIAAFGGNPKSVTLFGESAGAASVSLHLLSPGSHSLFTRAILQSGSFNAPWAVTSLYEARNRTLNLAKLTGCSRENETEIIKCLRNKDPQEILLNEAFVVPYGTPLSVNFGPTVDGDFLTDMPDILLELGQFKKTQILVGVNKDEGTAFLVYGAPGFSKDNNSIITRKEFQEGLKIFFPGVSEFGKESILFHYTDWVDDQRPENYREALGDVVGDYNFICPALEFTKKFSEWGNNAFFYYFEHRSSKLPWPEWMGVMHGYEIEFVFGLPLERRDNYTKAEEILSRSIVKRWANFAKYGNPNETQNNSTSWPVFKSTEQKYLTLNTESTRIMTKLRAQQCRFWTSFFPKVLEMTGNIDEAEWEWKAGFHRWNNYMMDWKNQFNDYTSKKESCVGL
Acetylcholinesterase (Electrophorus electricus), sequence (O42275 24-633 limits assumed): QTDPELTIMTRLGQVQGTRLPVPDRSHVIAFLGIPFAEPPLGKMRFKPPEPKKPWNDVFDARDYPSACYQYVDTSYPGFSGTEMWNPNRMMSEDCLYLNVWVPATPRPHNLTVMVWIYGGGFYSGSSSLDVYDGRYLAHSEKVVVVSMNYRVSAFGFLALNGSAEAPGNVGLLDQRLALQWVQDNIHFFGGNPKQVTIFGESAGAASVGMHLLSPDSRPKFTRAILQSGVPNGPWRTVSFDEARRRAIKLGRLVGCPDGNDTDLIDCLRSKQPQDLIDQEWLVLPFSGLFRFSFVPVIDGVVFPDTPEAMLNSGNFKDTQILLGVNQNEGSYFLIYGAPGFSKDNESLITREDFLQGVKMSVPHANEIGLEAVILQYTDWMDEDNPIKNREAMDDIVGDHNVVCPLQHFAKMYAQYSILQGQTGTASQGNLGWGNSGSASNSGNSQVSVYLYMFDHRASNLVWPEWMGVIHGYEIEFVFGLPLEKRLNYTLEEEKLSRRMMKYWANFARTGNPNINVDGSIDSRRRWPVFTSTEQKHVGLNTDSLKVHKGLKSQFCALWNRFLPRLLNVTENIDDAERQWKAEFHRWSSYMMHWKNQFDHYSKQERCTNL
Cholinesterase (Equus caballus), sequence (P81908 whole entry): as the sequence (P81908 whole entry) above

Structure (SMILES) | IC50 [1] [µM] | Ratio IC50 (Homo sapiens) | inhibition (INH) [2] | IC50 (Acetylcholinesterase [3]) [µM] | IC50 (Cholinesterase [4]) [µM] | IC50 (Cholinesterase [17]) [µM] | IC50 (Acetylcholinesterase [18]) [µM] | other results
O=c1ccc2ccc(OCCNCCC3CCN(Cc4ccccc4)CC3)cc2o1 | 30.4 | > 3.29 | Not Active | 8.91 | 9.79 | – | – | –
O=c1ccc2ccc(OCCCNC3CCN(Cc4ccccc4)CC3)cc2o1 | 12.6 | > 7.94 | Not Active | 11.7 | 9.86 | – | – | –
O=c1cc(-c2ccccc2)c2ccc(OCCNC3CCN(Cc4ccccc4)CC3)cc2o1 | 45.6 | > 2.19 | Not Active | 9.65 | 8.93 | – | – | –
O=c1oc2cc(OCCNC3CCN(Cc4ccccc4)CC3)ccc2c2c1CCCC2 | 2.62 | > 38.2 | Not Active | 0.87 | 0.93 | 1.98 | 1.37 | viability at 24 h, 25 µM [5]: 94.6%; viability at 24 h, 10 µM [6]: 97.5%; inhibition [7]: Active; Activity [8]: 47%; inhibition (INH) [9]: Active; viability at 24 h, 1 µM [10]: 99.6%; viability at 24 h, 5 µM [11]: 102%; viability at 24 h, 50 µM [12]: 92.6%; viability at 24 h, 6.25 µM [13]: 101%; viability at 24 h, 12.5 µM [14]: 101%; viability at 24 h, 25 µM [15]: 105%; viability at 24 h, 50 µM [16]: 104%; inhibition [19]: Active; Papp at 16 h, 25 ug/ml (in vitro): 16.2 ×10⁻⁶ cm/s
O=c1cc(C(F)(F)F)c2ccc(OCCNC3CCN(Cc4ccccc4)CC3)cc2o1 | 28.5 | > 3.51 | Not Active | 9.18 | 10.2 | – | – | –
Cc1c(C)c2ccc(OCCNC3CCN(Cc4ccccc4)CC3)cc2oc1=O | 23.4 | > 4.27 | Not Active | 1.48 | 1.67 | 2.67 | 1.69 | –
COc1cc(=O)oc2cc(OCCNC3CCN(Cc4ccccc4)CC3)ccc12 | 33.6 | > 2.98 | Not Active | 6.29 | 5.64 | – | – | –
Cc1cc(=O)oc2cc(CNCCC3CCN(Cc4ccccc4)CC3)ccc12 | 40.5 | > 2.47 | Not Active | 0.91 | 0.96 | 3.45 | 0.067 | –
